Source: ChEMBL document CHEMBL1201862, “PubChem BioAssay data set” (2004)
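Growth conditions: 96-well plates. Treatment: test compound, 48 hours, 5 concentrations. Analysis: linear interpolation between bracketing concentrations; unreached endpoints set to highest concentration. Here, GI50 denotes the concentration required for 50% inhibition of growth.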 Active and inactive are the calls of the source. Cut-off read from the data, not from the text of the source: active = GI50 up to about 1.1 µM and inactive = higher.

Columns and labels:
Test in all cases: DTP human tumour cell line panel, 48 h
[1] = tested on: SF-268
[2] = tested on: KM12
[3] = tested on: HOP-62
[4] = tested on: UO-31
[5] = tested on: NCI-H522
[6] = tested on: SK-MEL-2
[7] = tested on: SNB-19
[8] = tested on: IGROV-1
[9] = tested on: EKVX
[10] = tested on: M14
[11] = tested on: SK-MEL-28
[12] = tested on: DU-145
[13] = tested on: MDA-N
[14] = tested on: SN12C
[15] = tested on: UACC-257
[16] = tested on: OVCAR-5
[17] = tested on: SR
[18] = tested on: CAKI-1
[19] = tested on: NCI-H23
[20] = tested on: UACC-62
[21] = tested on: A498
[22] = tested on: NCI-H226
[23] = tested on: MDA-MB-231
[24] = tested on: SF-295
[25] = tested on: A549
[26] = tested on: OVCAR-8
[27] = tested on: HCT-15
[28] = tested on: U-251
[29] = tested on: 786-0
[30] = tested on: HOP-92
[31] = tested on: OVCAR-4
[32] = tested on: SK-MEL-5
[33] = tested on: NCI/ADR-RES
[34] = tested on: HT-29
[35] = tested on: ACHN
[36] = tested on: T47D
[37] = tested on: SW-620
[38] = tested on: MOLT-4
[39] = tested on: SNB-75
[40] = tested on: MCF7
[41] = tested on: RXF 393
[42] = tested on: NCI-H460
[43] = tested on: OVCAR-3
[44] = tested on: COLO 205
[45] = tested on: HCT-116
[46] = tested on: MDA-MB-435
[47] = tested on: Hs-578T
[48] = tested on: Malme-3M
[49] = tested on: LOX IMVI
[50] = tested on: BT-549
[51] = tested on: TK-10
[52] = tested on: PC-3
[53] = tested on: CCRF-CEM
[54] = tested on: HL-60
[55] = tested on: RPMI-8226
[56] = tested on: K562
[57] = tested on: SF-539
[58] = tested on: SK-OV-3

Measured: GI50

COC(=O)CCCC(=O)O
inactive: [1] > 100 µM | [2] > 100 µM | [3] > 100 µM | [4] > 100 µM | [5] > 100 µM | [6] > 100 µM | [7] > 100 µM | [8] > 100 µM | [9] > 100 µM | [10] > 100 µM | [11] > 100 µM | [12] > 100 µM | [13] > 100 µM | [14] > 100 µM | [15] > 100 µM | [16] > 100 µM | [17] > 100 µM | [18] > 100 µM | [19] > 100 µM | [20] > 100 µM | [21] > 100 µM | [22] > 100 µM | [23] > 100 µM | [24] > 100 µM | [25] > 100 µM | [26] > 100 µM | [28] > 100 µM | [29] > 100 µM | [30] > 100 µM | [31] > 100 µM | [32] > 100 µM | [33] > 100 µM | [34] > 100 µM | [35] > 100 µM | [36] > 100 µM | [37] > 100 µM | [38] > 100 µM | [39] > 100 µM | [40] > 100 µM | [41] > 100 µM | [42] > 100 µM | [43] > 100 µM | [44] > 100 µM | [45] > 100 µM | [46] > 100 µM | [47] > 100 µM | [48] > 100 µM | [49] > 100 µM | [50] > 100 µM | [51] > 100 µM | [52] > 100 µM
> 100 µM: [27]

Cc1cc2c(cc1-c1cc3c(cc1C)C(C(C)C)=C(O)C(=O)/C3=C\Nc1c(C)n(C)n(-c3ccccc3)c1=O)/C(=C/Nc1c(C)n(C)n(-c3ccccc3)c1=O)C(=O)C(O)=C2C(C)C
> 100 µM: [27]
inactive: [1] > 100 µM | [2] 71.6 µM | [3] 70.1 µM | [4] > 100 µM | [53] 33 µM | [5] > 100 µM | [6] > 100 µM | [7] > 100 µM | [8] 51.1 µM | [9] 76.9 µM | [10] 50.1 µM | [11] > 100 µM | [12] > 100 µM | [13] > 100 µM | [14] > 100 µM | [15] > 100 µM | [16] > 100 µM | [17] 39.2 µM | [18] > 100 µM | [19] > 100 µM | [20] > 100 µM | [21] > 100 µM | [22] 98.2 µM | [54] 33.9 µM | [23] 42.1 µM | [55] 71.9 µM | [24] > 100 µM | [25] 40.1 µM | [26] 82 µM | [28] 28.2 µM | [29] 62.1 µM | [30] 78.2 µM | [31] > 100 µM | [32] 49.9 µM | [56] > 100 µM | [33] > 100 µM | [34] > 100 µM | [35] 47.5 µM | [57] 48.1 µM | [36] > 100 µM | [37] 61.9 µM | [38] 41.2 µM | [39] > 100 µM | [40] 38.8 µM | [41] 26.1 µM | [42] 54.1 µM | [43] 50.2 µM | [44] 82.6 µM | [45] > 100 µM | [46] 79.3 µM | [47] > 100 µM | [48] > 100 µM | [50] > 100 µM | [58] > 100 µM | [52] 66.2 µM
